From patent US20230102590A1, “USE OF POLYETHER COMPOUND” (Senju Pharmaceutical Co., Ltd., priority 2020, published 2023)
Where two headings read alike, the source gives them in different places.

Tests used:
[1] = Experimental: Fujifilm Wako Pure Chemical
The poorly soluble compound content in the recovered filtrate was measured by liquid chromatography specified below (Shimadzu (Kyoto), high performance liquid chromatograph Prominence).
As the standard product of triamcinolone acetonide, a reagent from the Pharmaceutical and Medical Device Regulatory Science Society of Japan (Japan) was used. • 50 μL of sample solution and standard solution was measured by liquid chromatography under the following conditions.
Column temperature: constant temperature of about 40° C. Mobile phase A: 0.1% trifluoroacetic acid/10% acetonitrile solution Mobile phase B: 0.1% trifluoroacetic acid/90% acetonitrile solution Delivery of mobile phase: the ratio of mixture of mobile phase A and mobile phase B was changed as follows to control the linear concentration gradient.
Detergent: 50% acetonitrile solution Flow rate: 1.0 mL/min Temperature within autosampler: 5° C.
The following conditions were tested as additives to a poorly soluble compound
wherein SA+B=solubility of a poorly soluble compound in a composition comprising poloxamer 407 and PEG 4000 SB=solubility of a poorly soluble compound in a composition comprising PEG 4000, but not poloxamer 407 SA=solubility of a poorly soluble compound in a composition comprising poloxamer 407, but not PEG 4000 S0=solubility of a poorly soluble compound in a composition that comprises neither poloxamer 407 nor PEG 4000.
The solubility in a composition of PEG and poloxamer was measured in the same manner described above for additional compounds.
For cabozantinib and telmisartan, the pH of the aqueous solution with the base composition described above was changed to 7.4. For rebamipide, the aqueous solution with the base composition was as follow. • 0.05% sodium hydrogen phosphate hydrate • 0.45% sodium dihydrogen phosphate hydrate • sodium hydroxide and hydrochloric acid (suitable amount was added to adjust the pH to 6.0)
Additional compounds were measured in the same manner described above.
Cabozantinib and telmisartan were tested with a solution adjusted to a pH of 7.4. Rebamipide was tested with a solution adjusted to a pH of 6.0. Other compounds were tested with a solution adjusted to a pH of 7.0.

[2] = Basic solubility at 25° C. in ethanol, PEG 400, propylene glycol (PG) and buffer solution; solubility ratio non-aqueous solvent / buffer solution
Experimental: In this regard, the buffer solution had the following composition: • 0.2% sodium hydrogen phosphate hydrate • 0.3% sodium dihydrogen phosphate hydrate • sodium hydroxide and hydrochloric acid (suitable amount was added to adjust the pH to 7.0; however, pH was adjusted to 7.4 for cabozantinib and telmisartan).
However, the following composition was used for rebamipide instead: • 0.05% sodium hydrogen phosphate hydrate • 0.45% sodium dihydrogen phosphate hydrate • sodium hydroxide and hydrochloric acid (suitable amount was added to adjust the pH to 6.0).
Each compound was measured in the same manner described above. In the Table, the molecular weight and Log P values are reference values (or values calculated from reference values).

[3] = reference values; pH upon measurement: rebamipide pH 7.0, telmisartan pH 7.4, cilostazol pH 7.0, aprepitant pH 7, cabozantinib pH 7.4; cited from earlier work
[4] = Stability test: change in pH of poloxamer and/or polyethylene glycol solutions stored at 60° C. for four weeks; conditions: for stabilization of poloxamer 407 or PEG 4000 by the additive alone / concentration of additive able to stabilize PEG 4000 / concentration of additive able to stabilize poloxamer 407: pH change
Experimental: An additional component was added to an aqueous solution comprising poloxamer and/or polyethylene glycol, and the change in the viscosity and pH was measured over time under harsh conditions of 60° C. The following were used as the poloxamer, polyethylene glycol, and buffer. • Poloxamer 407 (Kolliphor P 407, BASF, Germany) • PEG 4000 (Macrogol 4000, NOF, Tokyo) • Buffer: 0.9% boric acid, 0.1% borax
The pH was adjusted with hydrochloric acid or sodium hydroxide. […] A polyethylene eye drop bottle was filled with 5 mL of each filtrate and stored in a 60° C. thermostatic vessel. The pH and viscosity of the test solutions as of preparation and at four weeks after storage were measured. The viscosity was measured using a rotational viscometer (Toki Sangyo (Osaka) Model TVE-25 viscometer type L, 25° C., 100 rpm). The pH as of the preparation was measured in the test solution before transferring to an eye drop bottle for storage.

[5] = 25° C., buffer pH 7.0 (pH 7.4 for cabozantinib and telmisartan; pH 6.0 for rebamipide)
[6] = 25° C., phosphate buffer pH 7.0

| SMILES | Solubility scale factor at 5° C. 30% PEG 4000/10% poloxamer 407 [1] | Solubility scale factor at 15° C. 30% PEG 4000/10% poloxamer 407 [1] | Solubility ratio of solvent with respect to buffer solution Ethanol/buffer solution [2, 5] | Solubility ratio of solvent with respect to buffer solution PEG400/buffer solution [2, 5] | Solubility ratio of solvent with respect to buffer solution PG/buffer solution [2, 5] | further results |
| --- | --- | --- | --- | --- | --- | --- |
| CC1(C)O[C@@H]2C[C@H]3[C@@H]4CCC5=CC(=O)C=C[C@]5(C)[C@H]4[C@@H](O)C[C@]3(C)[C@]2(C(=O)CO)O1 [Desonide] | 7.59 | 6.73 | 270.67 | 143.78 | 174.69 | Solubility, PEG400 ([2]; 25° C.): 1.031%; Solubility, PG (propylene glycol) ([2]; 25° C.): 1.253%; Solubility, Buffer solution [2, 6]: 0.007171% |
| Cc1ccc(-c2cc(C(F)(F)F)nn2-c2ccc(S(N)(=O)=O)cc2)cc1 [Celecoxib] |  |  |  |  |  | Solubility, Ethanol ([2]; 25° C.): 10.24% |
| COc1cc2nccc(Oc3ccc(NC(=O)C4(C(=O)Nc5ccc(F)cc5)CC4)cc3)c2cc1OC [Cabozantinib] | 288.38 | 74.57 | 1949439.39 | 25935652.78 | 1213400.25 | Log P [3]: 3.92 |
| CCC(C)n1ncn(-c2ccc(N3CCN(c4ccc(OCC5COC(Cn6cncn6)(c6ccc(Cl)cc6Cl)O5)cc4)CC3)cc2)c1=O (centres unmarked) [Itraconazole] |  |  |  |  |  | Solubility, Buffer solution [2, 6]: below the detection limit |
| Brc1cccc2c1oc1ccccc12 [4-bromadibenzofuran] | 793.72 | 1.61 | 426955.49 | 1693721.20 | 106519.51 |  |
| COC(=O)Nc1nc2cc(C(=O)c3ccc(F)cc3)ccc2[nH]1 [Flubendazole] | 24.46 | 12.41 | 745.67 | 5882.38 | 1401.17 | Solubility, Ethanol [2]: 0.007308% |
| CC1(C)O[C@@H]2C[C@H]3[C@@H]4CCC5=CC(=O)C=C[C@]5(C)[C@@]4(F)[C@@H](O)C[C@]3(C)[C@]2(C(=O)CO)O1 [Triamsinolone acetonide] | 7.32 | 7.52 | 1043.62 | 876.48 | 680.05 |  |
| O=C1Nc2ccc(Cl)cc2[C@@](C#CC2CC2)(C(F)(F)F)O1 [Efavir ? nt] | 14.23 | 1.97 | 101607.44 | 96901.18 | 66368.13 |  |
| O=C(NC(Cc1cc(=O)[nH]c2ccccc12)C(=O)O)c1ccc(Cl)cc1 (centres unmarked) [Rebamipide] | 1.13 | 1.07 | 2.67 | 5.41 | 4.88 | solubilization of compound due to poloxamer 407 by an addition of PEG 4000 [1]: lowest; Solubility, Ethanol ([2]; 25° C.): 0.06615%; Solubility, Buffer solution ([2]; 25° C., phosphate buffer adjusted to pH 6.0 (rebamipide)): 0.02473%; Log P [3]: −0.22 |
| OC[C@@H](O)[C@@H](O)[C@H](O)[C@H](O)CO [Mannitol] |  |  |  |  |  | stabilization of poloxamer 407 or PEG 4000 by the additive alone ([4]; four weeks at 60° C.): could not stabilize poloxamer 407 or PEG 4000 |
| CNC(=O)c1cc(Oc2ccc(NC(=O)Nc3ccc(Cl)c(C(F)(F)F)c3)cc2)ccn1 [Soraf ? nib] | 2355.97 | 450.47 | 4781694.68 | 7210696.23 | 4473505.75 |  |
| C=C(C)[C@H]1Cc2c(ccc3c2O[C@@H]2COc4cc(OC)c(OC)cc4[C@@H]2C3=O)O1 [Rotenone] |  |  | 30294.14 | 368226.98 | 13159.33 | Solubility, PEG400 ([2]; 25° C.): 3.314%; Solubility, PG (propylene glycol) ([2]; 25° C.): 0.1184% |
| Cc1ccc(-c2cc(C(F)(F)F)nn2-c2ccc(S(N)(=O)=O)cc2)cc1 [Cel ? coxib] | 686.99 | 183.33 | 80774.38 | 371931.96 | 28507.07 |  |
| O=S([O-])S(=O)(=O)[O-].[Na+].[Na+] [sodium pyrosulfite] |  |  |  |  |  | stabilization of poloxamer 407 or PEG 4000 by the additive alone ([4]; four weeks at 60° C.): could not stabilize poloxamer 407 or PEG 4000 |
| CC1(C)O[C@@H]2C[C@H]3[C@@H]4CCC5=CC(=O)C=C[C@]5(C)[C@@]4(F)[C@@H](O)C[C@]3(C)[C@]2(C(=O)CO)O1 [triamcinolone acetonide] |  |  |  |  |  | Solubility, Buffer solution [2, 6]: 0.001426% |
| O=S([O-])([O-])=S.[Na+].[Na+] [Sodium thiosulfate] |  |  |  |  |  | concentration of additive able to stabilize PEG 4000 ([4]; four weeks at 60° C.): 0.01%; concentration of additive able to stabilize poloxamer 407 ([4]; four weeks at 60° C.): 0.03% |
| C[C@@H]1C[C@H]2[C@@H]3CCC4=CC(=O)C=C[C@]4(C)[C@@]3(F)[C@@H](O)C[C@]2(C)[C@@]1(O)C(=O)CO [dexamethasone] | 7.45 | 7.10 |  |  |  | Solubility, Buffer solution [2, 6]: 0.008221% |
| O=C(O)CN(CCN(CC(=O)O)CC(=O)O)CC(=O)O [EDTA, ethylenediaminetetraacetic acid] |  |  |  |  |  | stabilization effect on low molecular weight PEG 400 ([4]; 0.1% additive): exhibited a stabilization effect; amount of PEG 4000 that the additive was able to stabilize ([4]; 0.1% additive, four weeks at 60° C.): up to 20%; concentration of additive able to stabilize PEG 4000 ([4]; four weeks at 60° C.): ≥ 0.1%; concentration of additive able to stabilize poloxamer 407 ([4]; four weeks at 60° C.): 0.01% |
| Cc1cn(-c2cc(NC(=O)c3ccc(C)c(Nc4nccc(-c5cccnc5)n4)c3)cc(C(F)(F)F)c2)cn1 [Nilotinib] | 144.99 | 31.62 |  |  |  | Solubility ratio of solvent with respect to buffer solution Ethanol/buffer solution [2]: 1623663.73; Solubility ratio of solvent with respect to buffer solution PEG400/buffer solution [2]: 7100339.79; Solubility ratio of solvent with respect to buffer solution PG/buffer solution [2]: 1437221.83 |
| CNC(=O)c1cc(Oc2ccc(NC(=O)Nc3ccc(Cl)c(C(F)(F)F)c3)c(F)c2)ccn1 [Regorafenib] | 182.78 | 114.87 | 2004388.60 | 7691626.26 | 1186517.97 | Solubility, Buffer solution [2, 6]: 0.0000004174% |
| COC1=CC(=O)C[C@@H](C)[C@]12Oc1c(Cl)c(OC)cc(OC)c1C2=O [Griseofulvin] | 15.19 | 14.31 | 309.31 | 1745.29 | 200.23 | Solubility, Ethanol ([2]; 25° C.): 0.2423%; Solubility, PEG400 ([2]; 25° C.): 1.367%; Solubility, PG (propylene glycol) ([2]; 25° C.): 0.1569%; Solubility, Buffer solution [2, 6]: 0.0007834% |
| Brc1cccc2c1oc1ccccc12 [4-bromodibenzofuran] |  |  |  |  |  | state of the test composition [1]: converted into gel |
| O=S([O-])[O-].[Na+].[Na+] [sodium sulfite] |  |  |  |  |  | stabilization of poloxamer 407 or PEG 4000 by the additive alone ([4]; four weeks at 60° C.): could not stabilize poloxamer 407 or PEG 4000 |
